In US20110318741A1, “BIOMARKERS FOR THE TREATMENT OF PSORIASIS” (priority 2010, published 2011):

How the values were obtained:
[1] = system: recalcitrant psoriasis vulgaris; assay: PASI score in phase 2, multi-center, open-label study; type: in vivo, human; settings: for PSAI Median Change (%): 20 mg BID; for subjects who had PASI-75 response: week 12
Source text: (§1) The pharmacodynamic effects of (S)—N-(2-(1-(3-ethoxy-4-methoxyphenyl)-2-(methylsulfonyl)ethyl)-1,3-dioxoisoindolin-4-yl)acetamide were studied in skin biopsies from subjects treated with the compound in a phase 2, multi-center, open-label study evaluating the safety, tolerability, and efficacy of the compound in recalcitrant psoriasis vulgaris. Skin biopsies were taken from uninvolved and involved skin at baseline, and from involved skin after treatment with (S)—N-(2-(1-(3-ethoxy-4-methoxyphenyl)-2-(methylsulfonyl)ethyl)-1,3-dioxoisoindolin-4-yl)acetamide 20 mg BID after 4 and 12 weeks.
Additionally, the reductions observed from biopsies were evaluated separately in responders and non-responders.
To identify changes in cellular infiltration or gene expression that correlate with changes in PASI score, a correlation analysis was performed using the Spearman rank-order correlation method. […] A strong trend was observed between the decrease in CD11c+myeloid DC in the epidermis the decrease in PASI score at week 4 (p=0.052).

[2] = system: proinflammatory gene products in psoriasis lesional skin; assay: mRNA abundance of inflammatory molecules in skin biopsies by real-time RT-PCR, normalized to hARP; type: in vivo, human; settings: Week 4, 20 mg BID, subjects also with PASI values
Method: mRNA abundance for a variety of inflammatory molecules was measured by real-time RT-PCR and expression was normalized to the house-keeping gene HARP (human acidic ribosomal protein). Inflammatory markers assessed by mRNA levels included the chemokine CXCL9, beta-defensin (DEFB4), interferon-gamma, IL-10, IL-17a, IL-22, IL-8, keratin 16, MX-1, IL-12/23 p40, IL-23 p19, iNOS and TNF. These are inflammatory molecules produced by activated DC populations, Th1, Th17, Th22 T-cells and response genes to interferon (MX-1. CXCL9) or IL-17 (defensin). Keratin 16 was also measured by mRNA levels to assess the epidermal response by an alternate means.
as §1
The expression of proinflammatory gene products known to be involved in the pathogenesis of psoriasis was measured by real-time polymerase chain reaction (RT-PCR). With regard to gene expression, there were reductions in iNOS and IL-12/IL-23 p40 mRNAs along with reductions in IL-17A and IL-22 mRNAs, indicating inhibition of the Th1, Th17, and Th22 pathways (FIG. 5). […] Normalized IL-17A mRNA levels were reduced by 49% at week 12 and normalized IL-22 mRNA levels were reduced by 100% at week 12. DEFB4, a defensin induced in keratinocytes by IL-17, was reduced by 55% in week 4 biopsies and by 82% in week 12 biopsies. IL-8, which is induced in keratinocytes by IL-17, was reduced by 76% in week 4 biopsies and by 66% in week 12 biopsies.

SMILES: CCOc1cc([C@@H](CS(C)(=O)=O)N2C(=O)c3cccc(NC(C)=O)c3C2=O)ccc1OC [(S)—N-(2-(1-(3-ethoxy-4-methoxyphenyl)-2-(methylsulfonyl)ethyl)-1,3-dioxoisoindolin-4-yl)acetamide]
- PSAI Median Change (%) ([1]; Week 4, subjects also with CD3 in Dermis values, No. 19): −29.0%
- PSAI Median Change (%) ([1]; Week 4, subjects also with CD3 in Epidermis values, No. 19): −29.0%
- PSAI Median Change (%) ([1]; Week 4, subjects also with CD11c in Dermis values, No. 20): −32.0%
- PSAI Median Change (%) ([1]; Week 4, subjects also with CD11c in Epidermis values, No. 18): −26.5%
- PSAI Median Change (%) ([1]; Week 4, subjects also with CD56 in Dermis values, No. 20): −32.0%
- PSAI Median Change (%) ([1]; Week 4, subjects also with CD56 in Epidermis values, No. 16): −15.0%
- PSAI Median Change (%) ([1]; Week 4, subjects also with CD83/hARP values, No. 15): −18.0%
- PSAI Median Change (%) ([1]; Week 4, subjects also with CXCL9/hARP values, No. 17): −29.0%
- PSAI Median Change (%) ([1]; Week 4, subjects also with DEFB4/hARP values, No. 16): −23.5%
- PSAI Median Change (%) ([1]; Week 4, subjects also with IFNγ/hARP values, No. 15): −35.0%
- PSAI Median Change (%) ([1]; Week 4, subjects also with IL-2/hARP values, No. 12): −32.0%
- PSAI Median Change (%) ([1]; Week 4, subjects also with IL-8/hARP values, No. 18): −32.0%
- PSAI Median Change (%) ([1]; Week 4, subjects also with IL-10/hARP values, No. 18): −32.0%
- PSAI Median Change (%) ([1]; Week 4, subjects also with IL-17A/hARP values, No. 16): −23.5%
- PSAI Median Change (%) ([1]; Week 4, subjects also with IL-22/hARP values, No. 10): −18.5%
- PSAI Median Change (%) ([1]; Week 4, subjects also with K16/hARP values, No. 18): −32.0%
- PSAI Median Change (%) ([1]; Week 4, subjects also with Langerin in Dermis values, No. 17): −18.0%
- PSAI Median Change (%) ([1]; Week 4, subjects also with Langerin in Epidermis values, No. 20): −32.0%
- PSAI Median Change (%) ([1]; Week 4, subjects also with MX1/hARP values, No. 17): −29.0%
- PSAI Median Change (%) ([1]; Week 4, subjects also with TNFα/hARP values, No. 17): −29.0%
- PSAI Median Change (%) ([1]; Week 4, subjects also with Thickness values, No. 19): −29.0%
- PSAI Median Change (%) ([1]; Week 4, subjects also with iNOS/hARP values, No. 15): −35.0%
- PSAI Median Change (%) ([1]; Week 4, subjects also with p19/hARP values, No. 18): −32.0%
- PSAI Median Change (%) ([1]; Week 4, subjects also with p40/hARP values, No. 13): −29.0%
- PSAI Median Change (%) ([1]; Week 12, subjects also with CD3 in Dermis values, No. 15): −48.0%
- PSAI Median Change (%) ([1]; Week 12, subjects also with CD3 in Epidermis values, No. 15): −48.0%
- PSAI Median Change (%) ([1]; Week 12, subjects also with CD11c in Dermis values, No. 14): −52.5%
- PSAI Median Change (%) ([1]; Week 12, subjects also with CD11c in Epidermis values, No. 13): −45.0%
- PSAI Median Change (%) ([1]; Week 12, subjects also with CD56 in Dermis values, No. 15): −48.0%
- PSAI Median Change (%) ([1]; Week 12, subjects also with CD56 in Epidermis values, No. 12): −42.5%
- PSAI Median Change (%) ([1]; Week 12, subjects also with CD83/hARP values, No. 11): −48.0%
- PSAI Median Change (%) ([1]; Week 12, subjects also with CXCL9/hARP values, No. 11): −48.0%
- PSAI Median Change (%) ([1]; Week 12, subjects also with DEFB4/hARP values, No. 10): −46.5%
- PSAI Median Change (%) ([1]; Week 12, subjects also with IFNγ/hARP values, No. 12): −54.0%
- PSAI Median Change (%) ([1]; Week 12, subjects also with IL-2/hARP values, No. 10): −54.0%
- PSAI Median Change (%) ([1]; Week 12, subjects also with IL-8/hARP values, No. 14): −54.0%
- PSAI Median Change (%) ([1]; Week 12, subjects also with IL-10/hARP values, No. 14): −54.0%
- PSAI Median Change (%) ([1]; Week 12, subjects also with IL-17A/hARP values, No. 10): −46.5%
- PSAI Median Change (%) ([1]; Week 12, subjects also with IL-22/hARP values, No. 6): −46.5%
- PSAI Median Change (%) ([1]; Week 12, subjects also with K16/hARP values, No. 14): −54.0%
- PSAI Median Change (%) ([1]; Week 12, subjects also with Langerin in Dermis values, No. 12): −54.0%
- PSAI Median Change (%) ([1]; Week 12, subjects also with Langerin in Epidermis values, No. 15): −48.0%
- PSAI Median Change (%) ([1]; Week 12, subjects also with MX1/hARP values, No. 11): −48.0%
- PSAI Median Change (%) ([1]; Week 12, subjects also with TNFα/hARP values, No. 13): −60.0%
- PSAI Median Change (%) ([1]; Week 12, subjects also with Thickness values, No. 14): −46.5%
- PSAI Median Change (%) ([1]; Week 12, subjects also with iNOS/hARP values, No. 11): −48.0%
- PSAI Median Change (%) ([1]; Week 12, subjects also with p19/hARP values, No. 14): −54.0%
- PSAI Median Change (%) ([1]; Week 12, subjects also with p40/hARP values, No. 7): −48.0%
- subjects who had PASI-75 response ([1]; IFNγ analysis set (eight subjects non PASI-75)): four
- subjects who had PASI-75 response ([1]; Langerin in dermis analysis set (ten subjects non PASI-75)): four
- IL-22/hARP: Gene Expression Median Change (%) ([2]; No. 10): −74.4%
- IL-2/hARP: Gene Expression Median Change (%) ([2]; No. 12): 3.33%
- p40/hARP: Gene Expression Median Change (%) ([2]; No. 13): −100%
- CD83/hARP: Gene Expression Median Change (%) ([2]; No. 15): −12.4%
- IFNγ/hARP: Gene Expression Median Change (%) ([2]; No. 15): −38.2%
- iNOS/hARP: Gene Expression Median Change (%) ([2]; No. 15): −61.0%
- DEFB4/hARP: Gene Expression Median Change (%) ([2]; No. 16): −55.4%
- IL-17A/hARP: Gene Expression Median Change (%) ([2]; No. 16): −72.5%
